This is an account of results in PubChem BioAssay AID1919017 (Molecular Pharmacology Branch, DTP, NCI, 2023).

In this assay the test system is SW1271 complex spheroids with HUVEC/MSC, growth, % test/control. Kind of assay: Anticancer human tumor SW1271 cell line growth inhibition [AhR].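 On all read-outs here: spheroids exposed to agents for 7 days before readout.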 The following applies: for viability, T/C: stronger effect = lower value. In a few lines:
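Agents were dosed in half-log steps down from roughly clinical Cmax, or from 10 microM where Cmax was unknown, alone and with AhR antagonists. Read-out: percent test/control growth of tumor spheroids containing HUVEC and MSC stromal cells.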

Setting [1] is: curve of first compound, second compound 0.1 µM.
Setting [2] is: curve of first compound, second compound 0.316 µM.
[3] abbreviates: curve of first compound, second compound 1 µM.
Where [4] appears, read: curve of first compound, second compound 3.16 µM.
The mark [5] stands for this setting: curve of first compound, second compound 10 µM.
[6] abbreviates: second compound 0.1 µM, first compound 0.0316 µM.
The mark [7] stands for this setting: second compound 0.1 µM, first compound 0.1 µM.
The mark [8] stands for this setting: second compound 0.1 µM, first compound 0.316 µM.
Setting [9] is: second compound 0.1 µM, first compound 1 µM.
Setting [10] is: second compound 0.1 µM, first compound 3.16 µM.
The mark [11] stands for this setting: second compound 0.1 µM, first compound 10 µM.
Where [12] appears, read: second compound 0.316 µM, first compound 0.0316 µM.
Setting [13] is: second compound 0.316 µM, first compound 0.1 µM.
Setting [14] is: second compound 0.316 µM, first compound 0.316 µM.
The mark [15] stands for this setting: second compound 0.316 µM, first compound 1 µM.
Setting [16] is: second compound 0.316 µM, first compound 3.16 µM.
The mark [17] stands for this setting: second compound 0.316 µM, first compound 10 µM.
Where [18] appears, read: second compound 1 µM, first compound 0.0316 µM.
[19] abbreviates: second compound 1 µM, first compound 0.1 µM.
Setting [20] is: second compound 1 µM, first compound 0.316 µM.
Setting [21] is: second compound 1 µM, first compound 1 µM.
Where [22] appears, read: second compound 1 µM, first compound 3.16 µM.
[23] abbreviates: second compound 1 µM, first compound 10 µM.
The mark [24] stands for this setting: second compound 3.16 µM, first compound 0.0316 µM.
Setting [25] is: second compound 3.16 µM, first compound 0.1 µM.
Setting [26] is: second compound 3.16 µM, first compound 0.316 µM.
Where [27] appears, read: second compound 3.16 µM, first compound 1 µM.
Where [28] appears, read: second compound 3.16 µM, first compound 3.16 µM.
Setting [29] is: second compound 3.16 µM, first compound 10 µM.
Setting [30] is: second compound 10 µM, first compound 0.0316 µM.
Where [31] appears, read: second compound 10 µM, first compound 0.1 µM.
Where [32] appears, read: second compound 10 µM, first compound 0.316 µM.
The mark [33] stands for this setting: second compound 10 µM, first compound 1 µM.
The mark [34] stands for this setting: second compound 10 µM, first compound 3.16 µM.
The mark [35] stands for this setting: second compound 10 µM, first compound 10 µM.

Several values for one entry are separate records, joined by “and”; a condition that tells them apart may be missing. Identical values can stand only once. A value given as a limit tells only on which side of the number the result lay.

As to `CC(C)c1c(-c2ccccc2)nc2c(C#N)c[nH]n2c1=O` + Cc1cncc(-c2nc(NCCc3c[nH]c4ccccc34)c3ncn(C(C)C)c3n2)c1, the IC50 is above 10000 nM under setting [1]; above 10000 nM under setting [2]; above 10000 nM under setting [3]; above 10000 nM under setting [4]; 472 nM under setting [5]. The viability, T/C runs as follows: under setting [6], 104%; under setting [7], 104%; under setting [8], 96.4%; under setting [9], 111%; under setting [10], 102%; under setting [11], 108%. Besides, the viability, T/C was 85.2% under setting [12]; 121% under setting [13]; 100% under setting [14]; 96.3% under setting [15]; 95.9% under setting [16]; 106% under setting [17]. For the same molecule, the viability, T/C is 89.5% under setting [18]; 111% under setting [19]; 87.6% under setting [20]; 80.2% under setting [21]; 87.7% under setting [22]; 82.5% under setting [23]. Also, the viability, T/C under setting [24] was 90.1%; the viability, T/C under setting [25] is 93.7%; the viability, T/C under setting [26] was 109%; the viability, T/C under setting [27] was 91.5%; the viability, T/C under setting [28] was 99.2%; the viability, T/C under setting [29] was 99.9%. For the same molecule, the viability, T/C reads like this: under setting [30], 53.4%; under setting [31], 58%; under setting [32], 48%; under setting [33], 48.2%; under setting [34], 44.8%; under setting [35], 50.4%.
Take `COc1cc(Nc2ncc3c(n2)-c2ccc(Cl)cc2C(c2c(F)cccc2OC)=NC3)ccc1C(=O)O`: the viability, T/C is 80.7% and 65.3% and 70.4% (compound 0.0316 µM); 91.2% and 67.1% and 74.3% (compound 0.1 µM); 92.5% and 67% and 66.7% (compound 0.316 µM); 83.3% and 64.7% and 68.1% (compound 1 µM); 72.4% and 61.5% and 57.6% (compound 3.16 µM); 43.3% and 49% and 51.4% (compound 10 µM). Further, under “curve of compound”, the IC50 was 7650 nM and > 10000 nM.
Consider `O=C(C=Cc1cccc(S(=O)(=O)Nc2ccccc2)c1)NO`, for which the viability, T/C by setting is: (compound 0.0316 µM) 103% and 83.5% and 85.7%; (compound 0.1 µM) 93.6% and 105% and 72.1%; (compound 0.316 µM) 84.1% and 62.7% and 54.9%; (compound 1 µM) 62.3% and 55.8% and 46.2%; (compound 3.16 µM) 31.1% and 22.6% and 23.3%; (compound 10 µM) 13.2% and 16.8% and 9.23%. Further, for the setting “curve of compound”, the IC50 was 1550 nM and 963 nM and 556 nM.
With `Nc1ccccc1NC(=O)c1ccc(CNC(=O)OCc2cccnc2)cc1` + Cc1cncc(-c2nc(NCCc3c[nH]c4ccccc34)c3ncn(C(C)C)c3n2)c1, the IC50 is 1890 nM under setting [1]; 1740 nM under setting [2]; 2490 nM under setting [3]; 1190 nM under setting [4]; below 31.6 nM under setting [5]. Moreover, the viability, T/C was 94.7% under setting [6]; 110% under setting [7]; 95.5% under setting [8]; 69.8% under setting [9]; 34.3% under setting [10]; 15.8% under setting [11]. Further, the viability, T/C reads like this: under setting [12], 109%; under setting [13], 104%; under setting [14], 97.4%; under setting [15], 62.9%; under setting [16], 35.5%; under setting [17], 17%. The viability, T/C is, setting by setting: under setting [18], 121%; under setting [19], 118%; under setting [20], 88.9%; under setting [21], 63.1%; under setting [22], 51.9%; under setting [23], 17.1%. Further, the viability, T/C runs as follows: under setting [24], 121%; under setting [25], 107%; under setting [26], 112%; under setting [27], 52.8%; under setting [28], 36%; under setting [29], 16.7%. In addition, the viability, T/C under setting [30] is 44.2%; the viability, T/C under setting [31] was 46.3%; the viability, T/C under setting [32] is 35.3%; the viability, T/C under setting [33] was 24%; the viability, T/C under setting [34] was 18.3%; the viability, T/C under setting [35] was 14.3%.
Take `CC1(C)CCC(CN2CCN(c3ccc(C(=O)NS(=O)(=O)c4ccc(NCC5CCOCC5)c([N+](=O)[O-])c4)c(Oc4cnc5[nH]ccc5c4)c3)CC2)=C(c2ccc(Cl)cc2)C1` + CC(CO)NC(=O)c1cc(-c2ccc(Cl)cc2)nn(-c2cnn(C)c2)c1=O: the IC50 was above 10000 nM under setting [1]; above 10000 nM under setting [2]; above 10000 nM under setting [3]; above 10000 nM under setting [4]; above 10000 nM under setting [5]. Further, the viability, T/C is, setting by setting: under setting [6], 85.8%; under setting [7], 90.7%; under setting [8], 107%; under setting [9], 98.6%; under setting [10], 82.7%; under setting [11], 71.5%. The viability, T/C under setting [12] was 84.4%; the viability, T/C under setting [13] is 73%; the viability, T/C under setting [14] is 71.8%; the viability, T/C under setting [15] was 84.2%; the viability, T/C under setting [16] was 100%; the viability, T/C under setting [17] is 78.3%. Also, the viability, T/C is, setting by setting: under setting [18], 91%; under setting [19], 89.3%; under setting [20], 78.8%; under setting [21], 80.4%; under setting [22], 85%; under setting [23], 86.3%. The viability, T/C was 68% under setting [24]; 70.2% under setting [25]; 91.4% under setting [26]; 82.5% under setting [27]; 60.7% under setting [28]; 88.6% under setting [29]. Moreover, the viability, T/C reads like this: under setting [30], 70.8%; under setting [31], 69.3%; under setting [32], 74.7%; under setting [33], 54.8%; under setting [34], 78.2%; under setting [35], 78.2%.
